Reference: patent publication US20220073496A1, “NOVEL QUINOLINE DERIVATIVE INHIBITOR” (Nanjing Transthera Biosciences Co., Ltd., priority 2018, published 2022)

What was measured:
[1] = target: T1, Tyro-3 (h) (Homo sapiens, UniProt Q06418); assay: Enzymatic activity test, Tyro-3 (h); assay type: biochemical; settings: 10 μM [γ-33P]-ATP, 40 minutes, room temperature
T1 construct: purchased
T1 sequence (Q06418 41-890): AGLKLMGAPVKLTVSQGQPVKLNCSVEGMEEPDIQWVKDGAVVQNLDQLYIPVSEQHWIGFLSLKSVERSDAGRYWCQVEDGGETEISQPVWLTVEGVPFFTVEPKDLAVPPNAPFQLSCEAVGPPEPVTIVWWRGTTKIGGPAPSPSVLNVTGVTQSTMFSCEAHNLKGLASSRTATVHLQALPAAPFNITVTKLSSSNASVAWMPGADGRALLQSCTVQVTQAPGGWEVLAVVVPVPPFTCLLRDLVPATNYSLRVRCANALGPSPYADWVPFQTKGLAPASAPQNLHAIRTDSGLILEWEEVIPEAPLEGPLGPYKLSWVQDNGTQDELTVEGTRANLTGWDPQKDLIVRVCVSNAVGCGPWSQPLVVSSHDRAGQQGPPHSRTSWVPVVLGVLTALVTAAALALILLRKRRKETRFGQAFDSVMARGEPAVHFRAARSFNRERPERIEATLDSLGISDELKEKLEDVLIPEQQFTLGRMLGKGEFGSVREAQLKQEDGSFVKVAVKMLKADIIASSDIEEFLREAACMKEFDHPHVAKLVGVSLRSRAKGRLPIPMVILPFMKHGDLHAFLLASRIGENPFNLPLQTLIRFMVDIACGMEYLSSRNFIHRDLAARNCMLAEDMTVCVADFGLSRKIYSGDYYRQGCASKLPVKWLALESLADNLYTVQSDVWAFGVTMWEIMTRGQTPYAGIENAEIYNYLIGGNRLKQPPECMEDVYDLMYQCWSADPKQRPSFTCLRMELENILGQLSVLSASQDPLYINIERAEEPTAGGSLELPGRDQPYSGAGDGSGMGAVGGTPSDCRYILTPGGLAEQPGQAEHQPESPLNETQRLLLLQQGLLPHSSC
Description: (§1) Assay 3: Enzymatic Activity Test of the Compounds of the Present Invention
(§2) Test substances: the compounds of the present invention, wherein the structures and preparations thereof were as described above.
(§3) (1) Preparation of the Compound Stock Solution
(§4) The compound was dissolved in 100% DMSO to prepare a stock solution with a maximum concentration of 500 μM.
(§5) (2) Preparation of the Compound Working Solution
(§6) The compound stock solution was diluted to final concentrations of 500, 150, 50, 15, 5, 1.5, 0.5, 0.15 and 0.05 μM to become the compound working solutions (50×).
(§7) (3) Preparation of Different Enzyme Reaction Solutions
The Tyro3 (h) enzyme was dissolved in 8 mM MOPS (pH 7.0), 0.2 mM EDTA, 1 mM MnCl2, and 250 μM KVEKIGEGTYGVVYK to prepare an enzyme solution having a final concentration of 38 nM. The enzymatic reaction was activated by using 10 mM magnesium acetate and 10 μM [γ-^33P]-ATP to form an Mg/ATP mixed solution.
(§8) In a 384-well plate, the compound working solution was added to final concentrations of 10000, 3000, 1000, 300, 100, 30, 10, 3, and 1 nM. Then different enzyme reaction solutions prepared according to the above conditions were added. The incubation was carried out for 40 minutes at room temperature. The test was terminated by the addition of a 0.5% phosphoric acid solution. 10 μL of the reaction solution was taken and dropped to the P30 filter paper. The filter paper was washed 4 times with 0.425% phosphoric acid solution and once with methanol, and then placed on a scintillation counter. The […] IC50 values were calculated using GraphPad 5.0 software.

[2] = target: T2, CSF1R (h) (Homo sapiens, UniProt P07333); assay: Enzymatic activity test, CSF1R (h); assay type: biochemical; settings: 10 μM [γ-33P]-ATP, 40 minutes, room temperature
T2 construct: purchased
Description: as §1, §2, §3, §4, §5, §6, §7
The enzymatic reaction was activated by using 10 mM magnesium acetate and 10 μM [γ-^33P]-ATP to form an Mg/ATP mixed solution.
as §8, with “The filter paper was washed 4 times with 0.425% phosphoric acid solution and once with methanol, and then placed on a scintillation counter.” left out

T2 sequence (P07333 20-972): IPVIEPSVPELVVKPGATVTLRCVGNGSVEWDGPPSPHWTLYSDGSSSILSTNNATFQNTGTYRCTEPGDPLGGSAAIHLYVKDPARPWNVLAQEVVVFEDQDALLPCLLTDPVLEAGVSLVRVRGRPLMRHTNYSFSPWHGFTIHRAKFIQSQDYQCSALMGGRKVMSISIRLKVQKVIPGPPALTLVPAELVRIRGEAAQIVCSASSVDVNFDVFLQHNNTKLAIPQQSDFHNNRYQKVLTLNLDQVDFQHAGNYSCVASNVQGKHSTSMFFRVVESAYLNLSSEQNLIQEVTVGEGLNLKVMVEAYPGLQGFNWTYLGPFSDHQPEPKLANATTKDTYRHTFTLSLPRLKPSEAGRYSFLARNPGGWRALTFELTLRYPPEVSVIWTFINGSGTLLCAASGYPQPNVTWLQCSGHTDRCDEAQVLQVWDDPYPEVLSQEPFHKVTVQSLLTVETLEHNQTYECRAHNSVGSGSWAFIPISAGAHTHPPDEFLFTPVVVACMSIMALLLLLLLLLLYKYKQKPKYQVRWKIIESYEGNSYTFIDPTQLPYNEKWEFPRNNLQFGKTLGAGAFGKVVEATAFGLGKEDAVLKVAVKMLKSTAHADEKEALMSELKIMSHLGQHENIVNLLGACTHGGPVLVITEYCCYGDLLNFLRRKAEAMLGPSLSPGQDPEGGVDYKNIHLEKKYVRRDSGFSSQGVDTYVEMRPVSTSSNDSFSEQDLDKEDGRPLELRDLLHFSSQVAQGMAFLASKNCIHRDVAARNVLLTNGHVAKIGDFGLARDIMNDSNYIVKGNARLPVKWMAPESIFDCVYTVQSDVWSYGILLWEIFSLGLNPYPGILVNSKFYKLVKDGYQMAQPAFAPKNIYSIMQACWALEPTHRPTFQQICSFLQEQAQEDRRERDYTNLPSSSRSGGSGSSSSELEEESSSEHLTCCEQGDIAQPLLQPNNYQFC

Row | SMILES | IC50 [1] | IC50 [2]
1 | COc1cc2nccc(Oc3ccc(NC(=O)c4cn(C(C)C)cc(-c5ccc(C)cc5)c4=O)nc3)c2cc1OC [Compound 1, N-(5-((6,7-dimethoxyquinolin-4-yl)oxy)pyridin-2-yl)-1-isopropyl-4-oxo-5-p-tolyl-1,4-dihydropyridin-3-carboxamide] | 29 nM | 200 nM
2 | COc1cc2nccc(Oc3ccc(NC(=O)c4cn(C(C)C)cc(-c5ccc(F)cc5)c4=O)nc3)c2cc1OC [Compound 14, N-(5-((6,7-dimethoxyquinolin-4-yl)oxy)pyridin-2-yl)-5-(4-fluorophenyl)-1-isopropyl-4-oxo-1,4-dihydropyridin-3-carboxamide] | 21 nM | 55 nM
3 | COc1cc2nccc(Oc3cnc(NC(=O)c4cn(C(C)C)cc(-c5ccc(F)cc5)c4=O)nc3)c2cc1OC [Compound 20, N-(5-((6,7-dimethoxyquinolin-4-y)oxy)pyrimidine-2-yl)-5-(4-fluorophenyl)-1-isopropyl-4-oxo-1,4-dihydropyridin-3-carboxamide] | – | 78 nM
4 | COc1cc2nccc(Oc3ccc(NC(=O)c4cn(C5CC5)cc(-c5ccc(F)cc5)c4=O)nc3)c2cc1OC [Compound 30, N-(5-((6,7-dimethoxyquinolin-4-yl)oxy)pyridin-2-yl)-1-cyclopropyl-4-oxo-5-para-fluorophenyl-1,4-hydropyridin-3-carboxamide] | 16 nM | 61 nM
5 | COc1cc2nccc(Oc3ccc(NC(=O)c4cn(C(C)C)nc(-c5ccc(F)cc5)c4=O)cn3)c2cc1OC [Compound 38, N-(6-((6,7-dimethoxyquinolin-4-yl)oxy)pyridin-3-yl)-6-para-fluorophenyl-2-isopropyl-5-oxo-2,5-dihydropyridazine-4-carboxamide] | 93 nM | 57 nM
6 | COc1cc2nccc(Oc3cnc(NC(=O)c4cn(C(C)C)nc(-c5ccc(F)cc5)c4=O)nc3)c2cc1OC [Compound 39, N-(5-((6,7-dimethoxyquinolin-4-yl)oxy)pyrimidine-2-yl)-6-(4-fluorophenyl)-2-isopropyl-5-oxo-2,5-dihydropyridazine-4-carboxamide] | 36 nM | 34 nM
7 | COc1cc2nccc(Oc3ncc(NC(=O)c4cn(C(C)C)nc(-c5ccc(F)cc5)c4=O)cn3)c2cc1OC [Compound 40, N-(2-((6,7-dimethoxyquinolin-4-yl)oxy)pyrimidine-5-yl)-6-(4-fluorophenyl)-2-isopropyl-5-oxo-2,5-dihydropyridazine-4-carboxamide] | 143 nM | 259 nM
8 | COc1cc2nccc(Oc3ccc(NC(=O)c4cn(C(C)C)nc(-c5ccc(F)cc5)c4=O)nc3)c2cc1OC [Compound 41, N-(5-((6,7-dimethoxyquinolin-4-yl)oxy)pyridin-2-yl)-6-(4-fluorophenyl)-2-isopropyl-5-oxo-2,5-dihydropyridazine-4-carboxamide] | 65 nM | –

The remaining compounds from weak to strong by IC50 [1], led by results:

Row | IC50 [1] | IC50 [2] | SMILES
9 | 13 nM | 38 nM | COc1cc2nccc(Oc3ccc(NC(=O)c4nn(C(C)C)cc(-c5ccc(F)cc5)c4=O)nc3)c2cc1OC [Compound 15, N-(5-((6,7-dimethoxyquinolin-4-yl)oxy)pyridin-2-yl)-5-(4-fluorophenyl)-1-isopropyl-4-oxo-1,4-dihydropyridazine-3-carboxamide]
10 | 12 nM | 61 nM | COc1cc2nccc(Oc3cnc(NC(=O)c4nn(C(C)C)cc(-c5ccc(F)cc5)c4=O)nc3)c2cc1OC [Compound 16, N-(5-((6,7-dimethoxyquinolin-4-yl)oxy)pyrimidine-2-yl)-5-(4-fluorophenyl)-1-isopropyl-4-oxo-1,4-dihydropyridazine-3-carboxamide]
11 | 12 nM | 51 nM | COc1cc2nccc(Oc3ccc(NC(=O)c4nn(C(C)C)cc(-c5ccc(F)cc5)c4=O)cn3)c2cc1OC [Compound 29, N-(6-((6,7-dimethoxyquinolin-4-yl)oxy)pyridin-3-yl)-1-isopropyl-4-oxo-5-para-fluorophenyl-1,4-dihydropyridazine-3-carboxamide]
12 | 12 nM | – | COc1cc2nccc(Oc3ncc(NC(=O)c4nn(C5CC5)cc(-c5ccc(F)cc5)c4=O)cn3)c2cc1OC [Compound 37, 1-cyclopropyl-N-(2-((6,7-dimethoxyquinolin-4-yl)oxy)pyrimidine-5-yl)-5-para-fluorophenyl-4-oxo-1,4-dihydropyridazine-3-carboxamide]
13 | 11 nM | 93 nM | COc1cc2nccc(Oc3cnc(NC(=O)c4cn(C5CC5)cc(-c5ccc(F)cc5)c4=O)nc3)c2cc1OC [Compound 32, 1-cyclopropyl-N-(5-((6,7-dimethoxyquinolin-4-yl)oxy)pyrimidine-2-yl)-5-(4-fluorophenyl)-4-oxo-1,4-dihydropyridin-3-carboxamide]
14 | 8 nM | 37 nM | COc1cc2nccc(Oc3cnc(NC(=O)c4nn(C5CC5)cc(-c5ccc(F)cc5)c4=O)nc3)c2cc1OC [Compound 33]
15 | 7 nM | 20 nM | COc1cc2nccc(Oc3ccc(NC(=O)c4nn(C5CC5)cc(-c5ccc(F)cc5)c4=O)nc3)c2cc1OC [Compound 31]
16 | 7 nM | 161 nM | COc1cc2nccc(Oc3ncc(NC(=O)c4nn(C(C)C)cc(-c5ccc(F)cc5)c4=O)cn3)c2cc1OC [Compound 34, N-(2-((6,7-dimethoxyquinolin-4-yl)oxy)pyrimidine-5-yl)-5-para-fluorophenyl-1-isopropyl-4-oxo-1,4-dihydropyridazine-3-carboxamide]
17 | 7 nM | 68 nM | COc1cc2nccc(Oc3ccc(NC(=O)c4nn(C5CC5)cc(-c5ccc(F)cc5)c4=O)cn3)c2cc1OC [Compound 36]
